This test relates to D54 ERlucT glycosylation luciferase reporter, luminescence, 24 h. Nature of the test: blockers of NLG process in reporter cells – D54 ERlucT cells, luminescence, cherry-picks, dose response (AID 624491).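 Further: signal gain reflects blocked N-linked glycosylation of a luciferase reporter; actives raise luciferase signal so AC26 marks activators of the reporter.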

For `Cc1ccc(-n2nc(C)c(/C=N/NC(=O)c3cccs3)c2Cl)cc1`, the AC26 is 4230 nM.

With `Cn1c(SCC(=O)c2ccc(F)cc2)ncc(C(=O)Nc2ccccc2)c1=O`, the AC26 is 4770 nM.

As to `COc1ccc(C2=NOC(C(=O)NCc3ccc(F)cc3)C2)cc1` (stereo not drawn), the AC26 was 516 nM.

Consider `C/C(=N\O)C(=O)C(CN1CCCCC1)CN1CCCCC1`, for which the AC26 was 1500 nM.

With `Cc1ccc(S(=O)(=O)Cc2ccc(C(=O)N3CCN(c4cccc(C)c4C)CC3)o2)cc1`, the AC26 was 3450 nM.

On to `COc1ccc(CNC(=O)c2cccc3c(-c4cccc(C(N)=O)c4)coc23)cc1OC`, for which the AC26 was 663 nM.

For `c1ccc(-c2cc(-c3nnc4n3N=C(c3ccc5ccccc5c3)CS4)[nH]n2)cc1`, the AC26 is 2110 nM.

In the case of `COc1ccc([C@H]2CC(=O)C=C(c3c(OC)cccc3OC)C2)cc1`, the AC26 was 3260 nM.

`Cc1ccc2nc(Cl)c(/C=C/C(=O)c3ccco3)cc2c1`: the AC26 is 7890 nM.

For the compound `Cc1nc(N=C(N)N)nc2c(C)cccc12`, the AC26 was 2200 nM.

With `COC(=O)Nc1nc(C)c(C(=O)c2ccccc2)s1`, the AC26 was 7950 nM.

Regarding `CN(C)CCCNc1c2c(nc3ccccc13)CCC2`, the AC26 is 9560 nM.

Turning to `COc1cccc(C(NC(C)=O)c2nc(-c3ccccc3C)cs2)c1` (stereo not drawn), the AC26 was 774 nM.

Consider `COc1ccccc1N1CC(O)=C(c2nc3ccccc3c(=O)[nH]2)C1=N`, for which the AC26 is 1320 nM.

With `COc1ccc(NC(=O)C(=O)c2cn(CC(=O)N3CCCC3)c3ccccc23)cc1`, the AC26 is 105 nM.

As to `COc1ccc2c(c1)[C@H]1[C@H](CO2)[C@H](c2ccccc2)[C@]2(C)C(=O)Nc3cc(F)ccc3C(=O)N12`, the AC26 was 19 nM.

On to `O=C(CCl)N1c2ccccc2Sc2c1ccc1ccccc21`, for which the AC26 is 257 nM.

In the case of `COC(=O)c1ccc(C)c(NS(=O)(=O)c2ccc3c(c2)OCCO3)c1`, the AC26 is 44.7 nM.

Consider `CN1C(=O)CSc2ccc(NC(=O)Nc3ccccn3)cc21`, for which the AC26 is 4260 nM.

Consider `Oc1ccc(C2=NNC(=NCc3ccc4c(c3)OCO4)SC2)c(O)c1`, for which the AC26 is 4890 nM.

For the compound `COc1ccc2c(c1)c(C(=O)N/N=C/c1ccc(Br)cc1)c(C)n2C`, the AC26 was 17100 nM.

For the compound `O=C1CCCC2=C1C1(CCCCC1)N=C(Nc1nc3ccccc3o1)N2`, the AC26 is 5790 nM.

For `CCOC(=O)C1CCN(c2c(N3CCN(Cc4ccccc4)CC3)c(=O)c2=O)CC1`, the AC26 was 1810 nM.

As to `O=C(c1cccc(N2CCCC2=O)c1)N1CCN(c2cccc(Cl)c2)CC1`, the AC26 was 2600 nM.

As to `COC(=O)c1cn(C(=O)c2cccc3ccccc23)c2ccccc12`, the AC26 was 928 nM.

In the case of `CNc1ccc(/C=C/C(=O)c2cccc3ccccc23)cc1[N+](=O)[O-]`, the AC26 is 2810 nM.

On to `COc1cc(-c2cc3nc(NCCOc4ccccc4)ccn3n2)cc(OC)c1OC`, for which the AC26 is 2350 nM.

As for `COc1ccccc1OCC(=O)NNC(=O)c1ccoc1C`, the AC26 was 722 nM.

For the compound `CN(C)/N=C/c1ccc(Sc2ccc([N+](=O)[O-])cc2[N+](=O)[O-])o1`, the AC26 was 1880 nM.

With `C=CCn1c(SCC(=O)c2[nH]c(C)c(C(=O)OC)c2C)nc2scc(-c3ccc(OC)c(OC)c3)c2c1=O`, the AC26 is 703 nM.

Turning to `Nc1sc(-c2ccccc2)cc1-c1n[nH]c(=S)n1C1CCCCC1`, the AC26 is 10700 nM.

For `O=C(c1[nH]c(C(F)(F)F)nc1-c1ccccc1)N1CCN(c2ccccc2)CC1`, the AC26 is 395 nM.

As to `COc1ccc(C=CC(=O)c2ccc3cc(OC)c(OC)cc3c2)cc1OC`, the AC26 is 2860 nM.

In the case of `NC(=O)CC(NC(=O)c1ccc(Br)cc1)c1ccc(NC2CCCCC2)c([N+](=O)[O-])c1` (stereo not drawn), the AC26 is 6020 nM.

For `CN1C(=O)c2cccc3c(S(=O)(=O)Nc4ccccn4)ccc1c23`, the AC26 is 5030 nM.

Take `COc1cc(OC)cc(C(=O)N/N=C/c2ccc(OC)c(COc3ccc(F)cc3)c2)c1`: the AC26 is 2250 nM.

`COC(=O)C1=C(c2cc3ccccc3s2)C[C@@H]2CC[C@H]1N2C(=O)N1CCOCC1`: the AC26 is 13600 nM.

Regarding `O=C(CC1Nc2ccccc2NC1=O)Nc1ccccc1` (stereo not drawn), the AC26 is 4880 nM.

For `COc1cc(C(=O)OCC(C)=O)ccc1OCc1c(C)noc1C`, the AC26 was 3270 nM.

Take `CC(C)OCC(O)CN1CCN(CCN2C(=O)c3cccc4cccc(c34)C2=O)CC1` (stereo not drawn): the AC26 was 7110 nM.

For the compound `CC1(C(=O)NCc2cccs2)Cc2c(-c3ccc4c(c3)OCO4)ccnc2O1` (stereo not drawn), the AC26 was 2060 nM.

`CCc1ccc(N2C(=O)NC(=O)/C(=C\C=C\c3ccco3)C2=O)cc1`: the AC26 is 1280 nM.

With `Cc1c(C(=O)N/N=C/c2cccnc2)sc(N)c1C#N`, the AC26 was 2000 nM.

On to `COc1cc(-c2cc3nc(NCCc4ccncc4)ccn3n2)cc(OC)c1OC`, for which the AC26 is 798 nM.

As to `CC(=O)c1cccc(-c2ccnc3c2CC(C(=O)NCc2ccccc2)O3)c1` (stereo not drawn), the AC26 was 657 nM.

On to `COc1cc2c(cc1OC)CN(c1ccc(C(F)(F)F)cn1)CC2`, for which the AC26 was 4710 nM.

Turning to `C[C@@H](NC(=O)c1ncn2c1c(=O)[nH]c1ccc(Br)cc12)c1ccccc1`, the AC26 is 2060 nM.

Consider `C[C@H]1CN([C@@H](C)CO)C(=O)Cc2cc(NC(=O)CCC(F)(F)F)ccc2O[C@H]1CN(C)S(=O)(=O)c1ccc(F)cc1`, for which the AC26 is 5300 nM.

Consider `COc1ccc(C(=O)N2CCN(S(=O)(=O)c3ccc(C)cc3C)CC2)cc1S(=O)(=O)N1CCOCC1`, for which the AC26 is 5770 nM.

Regarding `Cc1cc(C)nc(SC2=CS(=O)(=O)c3ccccc32)n1`, the AC26 was 4210 nM.

For the compound `CSCCOC(=O)c1[nH]c2c(c1C)C(=O)CC(c1ccco1)C2` (stereo not drawn), the AC26 is 526 nM.

For `O=C(COC(=O)Cn1cnc2ccccc21)Nc1cccc2c1C(=O)c1ccccc1C2=O`, the AC26 was 2840 nM.

On to `Cc1ccc(-c2nc(NCCCN(C)C)c3ccccc3n2)cc1`, for which the AC26 was 5650 nM.

With `COc1cc(-c2nc3ccc(N4CCN(C)CC4)cc3[nH]2)cc(OC)c1OC`, the AC26 is 535 nM.

With `COC(=O)c1ccccc1NC(=O)Cn1c(-c2nonc2N)nc2ccccc21`, the AC26 is 120 nM.

`O=C(NCCC1=CCCCC1)C1CCC(CNc2nc(=S)[nH]c3ccccc23)CC1` (stereo not drawn): the AC26 was 3920 nM.

As to `O=c1[nH]c(=O)c2nc3c4ccccc4c4ccccc4c3nc2[nH]1`, the AC26 was 392 nM.

`CCC(Cc1ccccc1)NC(=O)c1ccc2nc(N3CCOCC3)sc2c1` (stereo not drawn): the AC26 was 1250 nM.

Consider `Cn1c(=O)[nH]c(=O)c2c1nc(N/N=C/c1cccnc1)n2Cc1ccc(Cl)cc1`, for which the AC26 is 1630 nM.

Take `COc1ccc(OC)c(S(=O)(=O)Nc2ccc(-c3ccc4nnc(C)n4n3)cc2)c1`: the AC26 is 3190 nM.

For the compound `COc1ccc(C(=O)/C=C/c2ccc(-c3ccccc3)cc2)cc1CSCC(=O)O`, the AC26 is 1480 nM.

Consider `CCCCCC(O)C=CC1C(O)CC(O)C1CC=CCCCC(=O)O` (stereo not drawn), for which the AC26 was 7.83 nM.

For `COc1ccc(Nc2nc(N)c(C(=O)c3ccc(OC)cc3)s2)cc1`, the AC26 was 483 nM.

On to `COc1ccc(-c2[nH]nc(-c3ccccc3)c2-c2nc3ccccc3[nH]2)cc1`, for which the AC26 is 3900 nM.

As to `COc1ccc(/C=N/NC(=O)c2sccc2OCc2ccc(F)cc2)cc1OC`, the AC26 was 1310 nM.

As to `COc1ccc(C(=O)c2cc([N+](=O)[O-])ccc2N2CCN(C)CC2)cc1`, the AC26 is 2330 nM.

Take `Cn1cc(/C=N/n2cnc3scc(-c4ccc(Cl)cc4)c3c2=O)c2ccccc21`: the AC26 was 58.4 nM.

Consider `COc1ccc(C=CC(=O)c2c(OC)cc(OC)c(OC)c2O)cc1`, for which the AC26 was 4040 nM.
